Literature values in article PMC9516332 (Frontiers in Oncology, 2022).
Like-named read-outs stand apart in the source and are kept apart here.

Tests used:
Details in all cases: cited from earlier work
[1] = molecular target: panel of 255 wild-type kinases (Homo sapiens, UniProt Q16539)
[2] = molecular target: T1, panel of 255 wild-type kinases (Homo sapiens, UniProt Q15139)
T1 sequence (Q15139 1-912): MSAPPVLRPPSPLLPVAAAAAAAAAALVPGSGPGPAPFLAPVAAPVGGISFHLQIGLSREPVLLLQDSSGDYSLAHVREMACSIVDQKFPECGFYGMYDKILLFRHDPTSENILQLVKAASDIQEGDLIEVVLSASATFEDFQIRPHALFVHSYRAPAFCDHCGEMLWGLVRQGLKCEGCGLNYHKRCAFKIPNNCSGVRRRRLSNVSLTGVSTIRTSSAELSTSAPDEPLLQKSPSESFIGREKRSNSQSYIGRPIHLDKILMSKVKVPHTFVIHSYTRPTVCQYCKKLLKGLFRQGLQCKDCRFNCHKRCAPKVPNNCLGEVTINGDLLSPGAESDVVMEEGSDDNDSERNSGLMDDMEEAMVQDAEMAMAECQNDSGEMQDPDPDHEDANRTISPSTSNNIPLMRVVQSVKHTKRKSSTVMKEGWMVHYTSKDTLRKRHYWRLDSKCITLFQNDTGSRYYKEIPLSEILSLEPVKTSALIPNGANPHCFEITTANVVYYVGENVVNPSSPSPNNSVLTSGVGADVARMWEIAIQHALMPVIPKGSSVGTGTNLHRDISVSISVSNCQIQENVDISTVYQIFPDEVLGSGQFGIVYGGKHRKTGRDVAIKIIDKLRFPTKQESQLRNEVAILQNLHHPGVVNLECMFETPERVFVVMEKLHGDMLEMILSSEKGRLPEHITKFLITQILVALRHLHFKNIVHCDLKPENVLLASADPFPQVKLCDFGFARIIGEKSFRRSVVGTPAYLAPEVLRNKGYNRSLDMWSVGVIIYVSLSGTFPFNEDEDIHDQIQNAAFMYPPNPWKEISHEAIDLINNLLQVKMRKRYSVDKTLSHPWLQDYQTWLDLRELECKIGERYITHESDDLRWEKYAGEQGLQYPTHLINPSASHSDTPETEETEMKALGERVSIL

[3] = molecular target: panel of 255 wild-type kinases (Homo sapiens, UniProt P06493)
[4] = molecular target: panel of 255 wild-type kinases (Homo sapiens, UniProt P00519)
[5] = molecular target: panel of 255 wild-type kinases (Homo sapiens, UniProt Q9H4B4)
[6] = molecular target: panel of 255 wild-type kinases (Homo sapiens, UniProt Q13557)
[7] = molecular target: panel of 255 wild-type kinases (Homo sapiens, UniProt P35968)
[8] = molecular target: panel of 255 wild-type kinases (Homo sapiens, UniProt Q9Y463)
[9] = molecular target: panel of 255 wild-type kinases (Homo sapiens, UniProt Q8N4C8)
[10] = molecular target: panel of 255 wild-type kinases (Homo sapiens, UniProt P08069)
[11] = molecular target: panel of 255 wild-type kinases (Homo sapiens, UniProt O75676)
[12] = molecular target: T2, panel of 255 wild-type kinases (Homo sapiens, UniProt Q92630)
T2 sequence (Q92630 1-601): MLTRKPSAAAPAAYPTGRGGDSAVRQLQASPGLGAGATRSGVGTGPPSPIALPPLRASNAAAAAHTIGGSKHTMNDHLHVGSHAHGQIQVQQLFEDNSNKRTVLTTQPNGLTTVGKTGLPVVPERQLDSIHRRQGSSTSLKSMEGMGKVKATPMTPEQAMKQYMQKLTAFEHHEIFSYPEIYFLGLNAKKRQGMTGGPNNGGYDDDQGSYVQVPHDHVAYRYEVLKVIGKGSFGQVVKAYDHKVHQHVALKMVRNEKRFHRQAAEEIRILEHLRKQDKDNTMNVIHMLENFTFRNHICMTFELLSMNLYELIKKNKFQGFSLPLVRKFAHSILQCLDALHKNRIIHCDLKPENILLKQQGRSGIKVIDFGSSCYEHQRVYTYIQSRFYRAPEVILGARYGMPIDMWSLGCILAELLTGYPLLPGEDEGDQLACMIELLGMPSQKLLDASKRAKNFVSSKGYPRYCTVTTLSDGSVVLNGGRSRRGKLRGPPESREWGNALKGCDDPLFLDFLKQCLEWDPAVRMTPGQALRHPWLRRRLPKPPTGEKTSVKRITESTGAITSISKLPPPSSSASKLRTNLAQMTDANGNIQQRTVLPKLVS

[13] = p38α, 1 µmol/L single concentration, ref DOI: 10.1158/1535-7163.MCT-18-0877
[14] = kinase PKD1, 1 µmol/L single concentration, ref DOI: 10.1158/1535-7163.MCT-18-0877
[15] = CDC2/CycB1 kinase assay, 1 µmol/L single concentration, ref DOI: 10.1158/1535-7163.MCT-18-0877
[16] = ABL kinase assay, 1 µmol/L single concentration, ref DOI: 10.1158/1535-7163.MCT-18-0877
[17] = kinase PLK3, 1 µmol/L single concentration, ref DOI: 10.1158/1535-7163.MCT-18-0877
[18] = CaMK2δ kinase assay, 1 µmol/L single concentration, ref DOI: 10.1158/1535-7163.MCT-18-0877
[19] = kinase KDR, 1 µmol/L single concentration, ref DOI: 10.1158/1535-7163.MCT-18-0877
[20] = kinase DYRK1B, 1 µmol/L single concentration, ref DOI: 10.1158/1535-7163.MCT-18-0877
[21] = MINK, 1 µmol/L single concentration, ref DOI: 10.1158/1535-7163.MCT-18-0877
[22] = kinase IGF1R, 1 µmol/L single concentration, ref DOI: 10.1158/1535-7163.MCT-18-0877
[23] = MSK2, 1 µmol/L single concentration, ref DOI: 10.1158/1535-7163.MCT-18-0877
[24] = kinase DYRK2, 1 µmol/L single concentration, ref DOI: 10.1158/1535-7163.MCT-18-0877

SMILES	%-inhibition, p38α [1, 13]	%-inhibition at 1 µmol/L, PKD1 [2, 14]	%-inhibition CDC2/CycB1 [3, 15]	%-inhibition ABL [4, 16]	%-inhibition at 1 µmol/L, PLK3 [5, 17]	%-inhibition CaMK2δ [6, 18]	%-inhibition at 1 µmol/L, KDR [7, 19]	%-inhibition at 1 µmol/L, DYRK1B [8, 20]	%-inhibition, MINK [9, 21]	%-inhibition at 1 µmol/L, IGF1R [10, 22]	%-inhibition, MSK2 [11, 23]	%-inhibition at 1 µmol/L, DYRK2 [12, 24]	other results
Cc1cc(Nc2ncc(Cl)c(Nc3ccccc3S(=O)(=O)C(C)C)n2)c(OC(C)C)cc1C1CCNCC1 [ceritinib]	1.8%	27%	2.5%	-1.61%	-0.156%	76%	58%	11%	1.46%	103%	2.2%	6.41%	–
COc1cc(N2CCC(N3CCN(C)CC3)CC2)ccc1Nc1ncc(Cl)c(Nc2ccccc2P(C)(C)=O)n1 [brigatinib]	–	–	–	–	–	–	–	–	–	–	–	–	%-inhibition, p38α [1]: -0.837%; %-inhibition at 1 µmol/L, PKD1 [2]: 74%; %-inhibition CDC2/CycB1 [3]: 61%; %-inhibition ABL [4]: 54%; %-inhibition at 1 µmol/L, PLK3 [5]: -2.57%; %-inhibition CaMK2δ [6]: 101%; %-inhibition at 1 µmol/L, KDR [7]: 86%; %-inhibition at 1 µmol/L, DYRK1B [8]: 41%; %-inhibition, MINK [9]: 6%; %-inhibition at 1 µmol/L, IGF1R [10]: 99%; %-inhibition, MSK2 [11]: 10%; %-inhibition at 1 µmol/L, DYRK2 [12]: 29%
C=CC(=O)N1CCC[C@@H](n2nc(-c3ccc(Oc4ccccc4)cc3)c3c(N)ncnc32)C1 [ibrutinib]	-2.71%	3.22%	-1%	8%	1.53%	-0.826%	84%	2%	-6.41%	7.45%	-2%	-1.83%	–
